What follows are compounds tested against T1, human PAH with the R408W mutation (Homo sapiens, UniProt P00439, R408W) (assay: Cell Based Phenylalanine Flux Assay). Conditions: A375 cells expressing human R408W PAH; 24 hrs compound incubation; 13C-Tyrosine by LC-MS; average where tested multiple times; read-out: AC50.
T1 construct: expressed in transfected cells
T1 sequence (P00439 1-452 R408W): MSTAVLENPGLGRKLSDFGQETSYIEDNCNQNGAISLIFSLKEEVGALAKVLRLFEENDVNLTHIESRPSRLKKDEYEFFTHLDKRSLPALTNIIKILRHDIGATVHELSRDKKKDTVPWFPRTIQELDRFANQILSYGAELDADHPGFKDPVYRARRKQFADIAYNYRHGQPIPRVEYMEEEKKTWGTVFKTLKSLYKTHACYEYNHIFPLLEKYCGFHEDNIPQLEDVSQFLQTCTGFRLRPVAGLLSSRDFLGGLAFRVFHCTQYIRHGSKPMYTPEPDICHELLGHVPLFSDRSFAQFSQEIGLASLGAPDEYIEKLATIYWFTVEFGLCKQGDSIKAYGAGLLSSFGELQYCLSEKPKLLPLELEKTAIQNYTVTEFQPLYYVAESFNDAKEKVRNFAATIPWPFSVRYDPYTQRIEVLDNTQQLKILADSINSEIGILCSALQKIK

| SMILES | AC50 |
| --- | --- |
| Cc1nn(C)c(Cl)c1C(=O)N1CCc2[nH]cnc2[C@@H]1c1nc2c(F)cccc2s1 [Example 1741, (R)-(5-chloro-1,3-dimethyl-1H-pyrazol-4-yl)(4-(4-fluorobenzo[d]thiazol-2-yl)-6,7-dihydro-1H-imidazo[4,5-c]pyridin-5(4H)-yl)methanone] | 1000 to 5000 nM |
| Cc1nn(C)c(Cl)c1C(=O)N1CCc2[nH]cnc2[C@H]1c1nc2c(F)cccc2s1 [Example 1742] | < 500 nM |
| O=C(c1oc(-c2ccc(F)cn2)nc1C(F)F)N1CCc2[nH]cnc2[C@@H]1c1nc2ccccc2s1 [Example 1745, (R)-(4-(benzo[d]thiazol-2-yl)-6,7-dihydro-1H-imidazo[4,5-c]pyridin-5(4H)-yl)(4-(difluoromethyl)-2-(5-fluoropyridin-2-yl)oxazol-5-yl)methanone] | 500 to 1000 nM |
| O=C(c1oc(-c2ccc(F)cn2)nc1C(F)F)N1CCc2[nH]cnc2[C@H]1c1nc2ccccc2s1 [Example 1746] | < 500 nM |
| O=C(c1nnc(-c2ccccn2)o1)N1CCc2[nH]cnc2[C@@H]1c1nc2cc(F)ccc2s1 [Example 1747, (R)-(4-(5-fluorobenzo[d]thiazol-2-yl)-6,7-dihydro-1H-imidazo[4,5-c]pyridin-5(4H)-yl)(5-(pyridin-2-yl)-1,3,4-oxadiazol-2-yl)methanone] | 500 to 1000 nM |
| O=C(c1nnc(-c2ccccn2)o1)N1CCc2[nH]cnc2[C@H]1c1nc2cc(F)ccc2s1 [Example 1748, (S)-(4-(5-fluorobenzo[d]thiazol-2-yl)-6,7-dihydro-1H-imidazo[4,5-c]pyridin-5(4H)-yl)(5-(pyridin-2-yl)-1,3,4-oxadiazol-2-yl)methanone] | < 500 nM |
| C[C@@H]1CN(C(=O)c2nnc(-c3cnn(C)c3)o2)[C@@H](c2nc3ccccc3s2)c2nc[nH]c21 [Example 1749, ((4R,7R)-4-(benzo[d]thiazol-2-yl)-7-methyl-6,7-dihydro-1H-imidazo[4,5-c]pyridin-5(4H)-yl)(5-(1-methyl-1H-pyrazol-4-yl)-1,3,4-oxadiazol-2-yl)methanone] | 1000 to 5000 nM |
| C[C@@H]1CN(C(=O)c2nnc(-c3cnn(C)c3)o2)[C@H](c2nc3ccccc3s2)c2nc[nH]c21 [Example 1750, ((4S,7R)-4-(benzo[d]thiazol-2-yl)-7-methyl-6,7-dihydro-1H-imidazo[4,5-c]pyridin-5(4H)-yl)(5-(1-methyl-1H-pyrazol-4-yl)-1,3,4-oxadiazol-2-yl)methanone] | 500 to 1000 nM |
| C[C@H]1CN(C(=O)c2nnc(-c3cnn(C)c3)o2)[C@@H](c2nc3ccccc3s2)c2nc[nH]c21 [Example 1751, ((4R,7S)-4-(benzo[d]thiazol-2-yl)-7-methyl-6,7-dihydro-1H-imidazo[4,5-c]pyridin-5(4H)-yl)(5-(1-methyl-1H-pyrazol-4-yl)-1,3,4-oxadiazol-2-yl)methanone] | > 5000 nM |
| C[C@H]1CN(C(=O)c2nnc(-c3cnn(C)c3)o2)[C@H](c2nc3ccccc3s2)c2nc[nH]c21 [Example 1752, ((4S,7S)-4-(benzo[d]thiazol-2-yl)-7-methyl-6,7-dihydro-1H-imidazo[4,5-c]pyridin-5(4H)-yl)(5-(1-methyl-1H-pyrazol-4-yl)-1,3,4-oxadiazol-2-yl)methanone] | 500 to 1000 nM |
| C[C@@H]1CN(C(=O)c2nnc(-c3ccc(F)cn3)o2)[C@@H](c2nc3ccccc3s2)c2nc[nH]c21 [Example 1753, ((4R,7R)-4-(benzo[d]thiazol-2-yl)-7-methyl-6,7-dihydro-1H-imidazo[4,5-c]pyridin-5(4H)-yl)(5-(5-fluoropyridin-2-yl)-1,3,4-oxadiazol-2-yl)methanone] | 1000 to 5000 nM |
| C[C@@H]1CN(C(=O)c2nnc(-c3ccc(F)cn3)o2)[C@H](c2nc3ccccc3s2)c2nc[nH]c21 [Example 1754, ((4S,7R)-4-(benzo[d]thiazol-2-yl)-7-methyl-6,7-dihydro-1H-imidazo[4,5-c]pyridin-5(4H)-yl)(5-(5-fluoropyridin-2-yl)-1,3,4-oxadiazol-2-yl)methanone] | 500 to 1000 nM |
| C[C@H]1CN(C(=O)c2nnc(-c3ccc(F)cn3)o2)[C@@H](c2nc3ccccc3s2)c2nc[nH]c21 [Example 1755, ((4R,7S)-4-(benzo[d]thiazol-2-yl)-7-methyl-6,7-dihydro-1H-imidazo[4,5-c]pyridin-5(4H)-yl)(5-(5-fluoropyridin-2-yl)-1,3,4-oxadiazol-2-yl)methanone] | > 5000 nM |
| C[C@H]1CN(C(=O)c2nnc(-c3ccc(F)cn3)o2)[C@H](c2nc3ccccc3s2)c2nc[nH]c21 [Example 1756, ((4S,7S)-4-(benzo[d]thiazol-2-yl)-7-methyl-6,7-dihydro-1H-imidazo[4,5-c]pyridin-5(4H)-yl)(5-(5-fluoropyridin-2-yl)-1,3,4-oxadiazol-2-yl)methanone] | 1000 to 5000 nM |

Continued, values first:

| AC50 | SMILES |
| --- | --- |
| < 500 nM | Cn1nc(C(F)F)cc1C(=O)N1CCc2[nH]cnc2[C@H]1c1nc2c(F)cccc2s1 [Example 1731, (S)-(3-(difluoromethyl)-1-methyl-1H-pyrazol-5-yl)(4-(4-fluorobenzo[d]thiazol-2-yl)-6,7-dihydro-1H-imidazo[4,5-c]pyridin-5(4H)-yl)methanone] |
| 1000 to 5000 nM | Cn1nc(C(F)F)cc1C(=O)N1CCc2[nH]cnc2[C@@H]1c1nc2c(F)cccc2s1 [Example 1732, (R)-(3-(difluoromethyl)-1-methyl-1H-pyrazol-5-yl)(4-(4-fluorobenzo[d]thiazol-2-yl)-6,7-dihydro-1H-imidazo[4,5-c]pyridin-5(4H)-yl)methanone] |
| 500 to 1000 nM | Cn1ncc(Cl)c1C(=O)N1CCc2[nH]cnc2[C@H]1c1nc2c(F)cccc2s1 [Example 1733] |
| 500 to 1000 nM | Cn1ncc(Cl)c1C(=O)N1CCc2[nH]cnc2[C@@H]1c1nc2c(F)cccc2s1 [Example 1734, (R)-(4-chloro-1-methyl-1H-pyrazol-5-yl)(4-(4-fluorobenzo[d]thiazol-2-yl)-6,7-dihydro-1H-imidazo[4,5-c]pyridin-5(4H)-yl)methanone] |
| < 500 nM | O=C(c1ccnn1C1CC1)N1CCc2[nH]cnc2[C@H]1c1nc2c(F)cccc2s1 [Example 1735] |
| 1000 to 5000 nM | O=C(c1ccnn1C1CC1)N1CCc2[nH]cnc2[C@@H]1c1nc2c(F)cccc2s1 [Example 1736, (R)-(1-cyclopropyl-1H-pyrazol-5-yl)(4-(4-fluorobenzo[d]thiazol-2-yl)-6,7-dihydro-1H-imidazo[4,5-c]pyridin-5(4H)-yl)methanone] |
| < 500 nM | O=C(c1ccnn1CC(F)(F)F)N1CCc2[nH]cnc2[C@H]1c1nc2c(F)cccc2s1 [Example 1737, (S)-(4-(4-fluorobenzo[d]thiazol-2-yl)-6,7-dihydro-1H-imidazo[4,5-c]pyridin-5(4H)-yl)(1-(2,2,2-trifluoroethyl)-1H-pyrazol-5-yl)methanone] |
| 1000 to 5000 nM | O=C(c1ccnn1CC(F)(F)F)N1CCc2[nH]cnc2[C@@H]1c1nc2c(F)cccc2s1 [Example 1738, (R)-(4-(4-fluorobenzo[d]thiazol-2-yl)-6,7-dihydro-1H-imidazo[4,5-c]pyridin-5(4H)-yl)(1-(2,2,2-trifluoroethyl)-1H-pyrazol-5-yl)methanone] |
| < 500 nM | O=C(c1ccnn1C(F)F)N1CCc2[nH]cnc2[C@H]1c1nc2c(F)cccc2s1 [Example 1739] |
| 1000 to 5000 nM | O=C(c1ccnn1C(F)F)N1CCc2[nH]cnc2[C@@H]1c1nc2c(F)cccc2s1 [Example 1740, (R)-(1-(difluoromethyl)-1H-pyrazol-5-yl)(4-(4-fluorobenzo[d]thiazol-2-yl)-6,7-dihydro-1H-imidazo[4,5-c]pyridin-5(4H)-yl)methanone] |
| 500 to 1000 nM | Cn1ncc(C(=O)N2CCc3[nH]cnc3[C@H]2c2nc3c(F)cccc3s2)c1C(F)F [Example 1743, (S)-(5-(difluoromethyl)-1-methyl-1H-pyrazol-4-yl)(4-(4-fluorobenzo[d]thiazol-2-yl)-6,7-dihydro-1H-imidazo[4,5-c]pyridin-5(4H)-yl)methanone] |
| 500 to 1000 nM | O=C(c1ccnn1-c1ccccn1)N1CCc2[nH]cnc2[C@H]1c1nc2c(F)cccc2s1 [Example 1757, (S)-(4-(4-fluorobenzo[d]thiazol-2-yl)-6,7-dihydro-1H-imidazo[4,5-c]pyridin-5(4H)-yl)(1-(pyridin-2-yl)-1H-pyrazol-5-yl)methanone] |
| 1000 to 5000 nM | Cc1nc(Br)c(C(=O)N2CCc3[nH]cnc3[C@@H]2c2nc3c(F)cccc3s2)o1 [Example 1759, (R)-(4-bromo-2-methyloxazol-5-yl)(4-(4-fluorobenzo[d]thiazol-2-yl)-6,7-dihydro-1H-imidazo[4,5-c]pyridin-5(4H)-yl)methanone] |
| < 500 nM | Cc1nc(Br)c(C(=O)N2CCc3[nH]cnc3[C@H]2c2nc3c(F)cccc3s2)o1 [Example 1760] |
| 500 to 1000 nM | CN(C)CCn1nccc1C(=O)N1CCc2[nH]cnc2[C@H]1c1nc2c(F)cccc2s1 [Example 1761, (S)-(1-(2-(dimethylamino)ethyl)-1H-pyrazol-5-yl)(4-(4-fluorobenzo[d]thiazol-2-yl)-6,7-dihydro-1H-imidazo[4,5-c]pyridin-5(4H)-yl)methanone] |
| 1000 to 5000 nM | CN(C)CCn1nccc1C(=O)N1CCc2[nH]cnc2[C@@H]1c1nc2c(F)cccc2s1 [Example 1762, (R)-(1-(2-(dimethylamino)ethyl)-1H-pyrazol-5-yl)(4-(4-fluorobenzo[d]thiazol-2-yl)-6,7-dihydro-1H-imidazo[4,5-c]pyridin-5(4H)-yl)methanone] |

Reference: patent US20250171438A1 (Agios Pharmaceuticals, Inc., priority 2022, published 2025)
